In one test the test system is T1, hMC4-R.
T1 construct: expressed in transfected cells; host or cells: HEK-293
The experiment in a line: cAMP functional assay in HEK-293 cells expressing MC4-R (agonist, neutral antagonist/Schild). The conditions noted are these: for intrinsic activity at MC4-R: NDP-α-MSH maximal stimulation = 1.0; for pA2 value at MC4-R: Schild plot vs NDP-α-MSH; for functional status at MC4-R: mostly at 1 μM. The class given is cell-based, human. In a few lines:
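Cells in EBSS/HEPES pH 7.5 with 0.3 mM IBMX, exposed to compound (0.05-5000 nM, 1% DMSO) for 1 h at 37 °C; cAMP by EIA, EC50 by nonlinear regression. Antagonism: 30 min compound pre-incubation, then 1 nM NDP-α-MSH for 1 h; Schild analysis over 0.005-5000 nM agonist gives pA2.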

The subject of another test is T2, MC4-R.
T2 construct: expressed in transfected cells; host or cells: HEK-293
It is filed as cell-based. From the text:
Assay for Antagonists of AgRP in HEK-293/MC4-R Cells stimulated with Forskolin. […] AgRP causes a decrease in the basal adenylyl cyclase activity only to the extent of 40-50%. Even though the AgRP-induced decrease in cAMP levels is substantial, conventional assay methods, such as those described above, have limited sensitivity, precluding detecting small changes that are reversed by certain antagonists to AgRP. This limitation was circumvented by the use of a non-specific activator, forskolin, which directly activates adenylyl cyclase activity and raises cyclic AMP levels. Forskolin, a cell permeable diterpenoid initially isolated from Coleus forskohlii, has the ability to stimulate adenylyl cyclase activity and increase intracellular cAMP, thus activating cAMP-dependent protein kinase and other cAMP receptor proteins. See, e.g., Seamon, K. B., Daly, J. W. Forskolin: a unique diterpene activator of cyclic AMP-generating system. J. Cyclic Nucleotide Res. 7(4):201-24, 1981; Fradkin, J. E., Cook, G. H., Kilhoffer, M. C., Wolff, J. Forskolin stimulation of thyroid adenylate cyclase and cyclic 3′,5′-adenosine monophosphate accumulation. Endocrinology 111 (3):849-56, 1982; Barber, R., Goka, T. J. Adenylate cyclase activity as a function of forskolin concentration. J. Cyclic Nucleotide Protein Phosphor. Res. 10(1):23-9, 1985; and Laurenza, A., Sutkowski, E. M., Seamon, K. B. Forskolin: a specific stimulator of adenylyl cyclase or a diterpene with multiple sites of action? Trends Pharmacol. Sci. 10(11):442-7, 1989. […] The EC50 value was about 5 μM. AgRP inhibited the forskolin-induced response by 65% at a concentration of 10 nM. The difference in forskolin stimulated response and the inhibition due to AgRP in the cAMP levels was exploited to screen compounds for their ability to antagonize AgRP inhibition and […] levels of cAMP accumulation.
Experimental details for assays included incubating cells with the test compound in the presence of the inverse agonist AgRP with the extent of reversal of the AgRP effect measured by following the increase in the levels of intracellular cAMP. HEK-293 cells expressing MCR-4 were suspended in 10 mM HEPES/Earle's Balanced Salt Solution at pH 7.5 with the phosphodiesterase inhibitor IBMX, and pre-incubated for 30 minutes with the compounds (0.5-5000 nM). The cells were then treated with AgRP (10 nM) and incubated further for 30 minutes. The cells were then treated with forskolin (10 μM) and incubated for an additional 60 minutes. Cells were lysed and cAMP was measured by EIA kit (Amersham).

SMILES strings stand for the structures. Values joined by “and” are separate entries in the source; they are usually repeats but may differ in a detail not shown here. Equal values may be shown once. Read-outs that look alike come from different tables or passages of the source.

As for `CC(=O)N[C@H](Cc1ccc(C)cc1C)C(=O)N1C[C@@H](C)N(CCc2ccc3ccccc3c2)C[C@@H]1CCCNC(=N)N` [Example 26, N-{1(R)-(2,4-Dimethyl-benzyl)-2-[2(S)-(3-guanidino-propyl)-5(R)-methyl-4-(2-naphthalen-2-yl-ethyl)-piperazin-1-yl]-2-oxo-ethyl}-acetamide], the “functional status (pAg, Ag, Antag, Inactive)” value in the test with hMC4-R (MC4-R, Table 1) is reported as “Antag (“Antag” means antagonist)”. Moreover, in the test on hMC4-R, the “intrinsic activity at MC4-R” value is reported as “no intrinsic activity” and the “pA2 value at MC4-R” value was 8.3. In addition, the “functional status at MC4-R” value in the test on hMC4-R (cAMP assay) is “antagonist”. Moreover, the “effect on AgRP inhibition of forskolin-stimulated cAMP levels” value in the test with MC4-R was “reversal of AgRP inhibition”.
For `Cc1ccc(C[C@@H](N)C(=O)N2C[C@@H](C)N(CCc3ccc4ccccc4c3)C[C@@H]2CCCNC(=N)N)c(C)c1` [Example 28, N-{3-[1-[2(R)-Amino-3-(2,4-dimethyl-phenyl)-propionyl]-5(R)-methyl-4-(2-naphthalen-2-yl-ethyl)-piperazin-2(S)-yl]-propyl}-guanidine], in the test on hMC4-R (MC4-R, Table 1), the “functional status (pAg, Ag, Antag, Inactive)” value is given as “pAg (“pAg” means partial agonist)”. For the same compound, the EC50 with hMC4-R (MC4-R, Table 1, read-out: EC50) turned out to be 390 nM; with hMC4-R (cAMP assay, read-out: EC50 (nM) at MC4-R) it was 321 nM. In addition, the “intrinsic activity at MC4-R” value in the test on hMC4-R was 0.16 and 0.2. Besides, the “effect on AgRP inhibition of forskolin-stimulated cAMP levels” value in the test with MC4-R is listed as “reversal of AgRP inhibition”.
Take `CC(C)C[C@@H]1CN(C(=O)[C@H](N)Cc2ccc(Cl)cc2Cl)[C@@H](CCCNC(=N)N)CN1CCc1ccc2ccccc2c1` [Example 4, N-{3-[1-[2(R)-Amino-3-(2,4-dichloro-phenyl)-propionyl]-5(R)-isobutyl-4-(2-naphthalen-2-yl-ethyl)-piperazin-2(S)-yl]-propyl}-guanidine]: the “functional status (pAg, Ag, Antag, Inactive)” value in the test with hMC4-R (MC4-R, Table 1) is reported as “Antag (“Antag” means antagonist)”. In the test with hMC4-R, the “intrinsic activity at MC4-R” value is “no intrinsic activity” and the “pA2 value at MC4-R” value is given as 7.7. The “functional status at MC4-R” value in the test with hMC4-R (cAMP assay) was “antagonist”.

These data come from patent US20090076029A1 (Palatin Technologies, Inc., priority 2007, published 2009).
